Results: patent publication US20130274174A1, “THERAPEUTIC COMBINATION OF DAPTOMYCIN AND PROTEIN SYNTHESIS INHIBITOR ANTIBIOTIC, AND METHODS OF USE” (priority 2011, published 2013)
≈ marks a conversion by molar mass, not a printed value. Like-named read-outs stand apart in the source and are kept apart here.

How the values were obtained:
[1] = test system: S. aureus ATCC 33591; experiment: microbe, parasite or virus in culture; type: cell-based, Staphylococcus aureus; settings: for MIC: Staphylococcus aureus
Procedure, shortened: (§1)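 MW2 passaged on cation-adjusted Mueller-Hinton II agar with ¼ MIC of TR-700, TR-705, LZD, TIA, CLI, TET, VAN or TMP/SMX plus a linear DAP gradient; ATCC 33591 with ¼ MIC TR-700, TMP/SMX or VAN; DAP-only controls.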

[2] = test system: S. aureus MW2 (NRS123); experiment: microbe, parasite or virus in culture; type: cell-based, Staphylococcus aureus; settings: for MIC: Staphylococcus aureus
Procedure, shortened: as §1

Cn1nnc(-c2ccc(-c3ccc(N4C[C@H](CO)OC4=O)cc3F)cn2)n1 [TR-700, Tedizolid]
DAP MIC lower than DAP-only control ([1]; ATCC 33591, co-selecting agent at ¼ MIC): 4 fold
MIC ([1]; ATCC33591, passage 0, ATCC 33591 WT): 0.5 µg/mL (≈ 1.35 µM)
MIC ([1]; ATCC33591, passage 5, selection group DAP): 0.125 µg/mL (≈ 0.338 µM)
MIC ([1]; ATCC33591, passage 5, selection group DAP + TMP/SMX): 0.5 µg/mL
MIC ([1]; ATCC33591, passage 5, selection group DAP + TR-700): 0.5 µg/mL
MIC ([1]; ATCC33591, passage 5, selection group DAP + VAN): 0.5 µg/mL
MIC ([1]; ATCC33591, passage 10, selection group DAP): 0.125 µg/mL (≈ 0.338 µM)
MIC ([1]; ATCC33591, passage 10, selection group DAP + TMP/SMX): 0.25 µg/mL
MIC ([1]; ATCC33591, passage 10, selection group DAP + TR-700): 0.5 µg/mL
MIC ([1]; ATCC33591, passage 10, selection group DAP + VAN): 0.5 µg/mL
MIC ([1]; ATCC33591, passage 15, selection group DAP): 0.125 µg/mL (≈ 0.338 µM)
MIC ([1]; ATCC33591, passage 15, selection group DAP + TMP/SMX): 0.25 µg/mL
MIC ([1]; ATCC33591, passage 15, selection group DAP + TR-700): 0.5 µg/mL
MIC ([1]; ATCC33591, passage 15, selection group DAP + VAN): 0.25 µg/mL
MIC ([1]; ATCC33591, passage 20, selection group DAP): 0.125 µg/mL (≈ 0.338 µM)
MIC ([1]; ATCC33591, passage 20, selection group DAP + TMP/SMX): 0.25 µg/mL
MIC ([1]; ATCC33591, passage 20, selection group DAP + TR-700): 0.5 µg/mL
MIC ([1]; ATCC33591, passage 20, selection group DAP + VAN): 0.5 µg/mL
MIC ([1]; ATCC33591, passage 25, selection group DAP): 0.125 µg/mL (≈ 0.338 µM)
MIC ([1]; ATCC33591, passage 25, selection group DAP + TMP/SMX): 0.25 µg/mL
MIC ([1]; ATCC33591, passage 25, selection group DAP + TR-700): 0.25 µg/mL
MIC ([1]; ATCC33591, passage 25, selection group DAP + VAN): 0.25 µg/mL
MIC ([1]; ATCC33591, passage 30, selection group DAP): 0.125 µg/mL (≈ 0.338 µM)
MIC ([1]; ATCC33591, passage 30, selection group DAP + TMP/SMX): 0.25 µg/mL
MIC ([1]; ATCC33591, passage 30, selection group DAP + TR-700): 0.5 µg/mL
MIC ([1]; ATCC33591, passage 30, selection group DAP + VAN): 0.5 µg/mL
MIC ([1]; ATCC33591, read-out: DAP MIC of the co-selection passage group, ATCC 33591, through P15, co-selecting agent at ¼ MIC): ≤ 1 µg/mL
DAP MIC lower than DAP-only control ([2]; MW2, after 30 passages, co-selecting agent at ¼ MIC, total population): 16 fold
MIC ([2]; NRS123, passage 0, NRS123 WT): 0.5 µg/mL (≈ 1.35 µM)
MIC ([2]; NRS123, passage 5, selection group DAP): 0.5 µg/mL (≈ 1.35 µM)
MIC ([2]; NRS123, passage 5, selection group DAP + CLI): 0.5 µg/mL
MIC ([2]; NRS123, passage 5, selection group DAP + LZD): 0.5 µg/mL
MIC ([2]; NRS123, passage 5, selection group DAP + TET): 0.5 µg/mL
MIC ([2]; NRS123, passage 5, selection group DAP + TIA): 0.5 µg/mL
MIC ([2]; NRS123, passage 5, selection group DAP + TMP/SMX): 0.25 µg/mL
MIC ([2]; NRS123, passage 5, selection group DAP + TR-700): 0.5 µg/mL
MIC ([2]; NRS123, passage 5, selection group DAP + TR-705): 0.5 µg/mL
MIC ([2]; NRS123, passage 5, selection group DAP + VAN): 0.25 µg/mL
MIC ([2]; NRS123, passage 10, selection group DAP): 0.5 µg/mL (≈ 1.35 µM)
MIC ([2]; NRS123, passage 10, selection group DAP + CLI): 0.5 µg/mL
MIC ([2]; NRS123, passage 10, selection group DAP + LZD): 0.5 µg/mL
MIC ([2]; NRS123, passage 10, selection group DAP + TET): 0.5 µg/mL
MIC ([2]; NRS123, passage 10, selection group DAP + TIA): 0.5 µg/mL
MIC ([2]; NRS123, passage 10, selection group DAP + TMP/SMX): 0.5 µg/mL
MIC ([2]; NRS123, passage 10, selection group DAP + TR-700): 0.5 µg/mL
MIC ([2]; NRS123, passage 10, selection group DAP + TR-705): 0.5 µg/mL
MIC ([2]; NRS123, passage 10, selection group DAP + VAN): 0.25 µg/mL
MIC ([2]; NRS123, passage 15, selection group DAP): 0.25 µg/mL (≈ 0.675 µM)
MIC ([2]; NRS123, passage 15, selection group DAP + CLI): 0.25 µg/mL
MIC ([2]; NRS123, passage 15, selection group DAP + LZD): 0.5 µg/mL
MIC ([2]; NRS123, passage 15, selection group DAP + TET): 0.25 µg/mL
MIC ([2]; NRS123, passage 15, selection group DAP + TIA): 0.5 µg/mL
MIC ([2]; NRS123, passage 15, selection group DAP + TMP/SMX): 0.5 µg/mL
MIC ([2]; NRS123, passage 15, selection group DAP + TR-700): 0.5 µg/mL
MIC ([2]; NRS123, passage 15, selection group DAP + TR-705): 0.5 µg/mL
MIC ([2]; NRS123, passage 15, selection group DAP + VAN): 0.5 µg/mL
MIC ([2]; NRS123, passage 20, selection group DAP): 0.5 µg/mL (≈ 1.35 µM)
MIC ([2]; NRS123, passage 20, selection group DAP + CLI): 0.25 µg/mL
MIC ([2]; NRS123, passage 20, selection group DAP + LZD): 0.5 µg/mL
MIC ([2]; NRS123, passage 20, selection group DAP + TET): 0.25 µg/mL
MIC ([2]; NRS123, passage 20, selection group DAP + TIA): 0.5 µg/mL
MIC ([2]; NRS123, passage 20, selection group DAP + TMP/SMX): 0.5 µg/mL
MIC ([2]; NRS123, passage 20, selection group DAP + TR-700): 0.5 µg/mL
MIC ([2]; NRS123, passage 20, selection group DAP + TR-705): 0.5 µg/mL
MIC ([2]; NRS123, passage 20, selection group DAP + VAN): 0.5 µg/mL
MIC ([2]; NRS123, passage 25, selection group DAP): 0.25 µg/mL (≈ 0.675 µM)
MIC ([2]; NRS123, passage 25, selection group DAP + CLI): 0.25 µg/mL
MIC ([2]; NRS123, passage 25, selection group DAP + LZD): 0.25 µg/mL
MIC ([2]; NRS123, passage 25, selection group DAP + TET): 0.25 µg/mL
MIC ([2]; NRS123, passage 25, selection group DAP + TIA): 0.5 µg/mL
MIC ([2]; NRS123, passage 25, selection group DAP + TMP/SMX): 0.25 µg/mL
MIC ([2]; NRS123, passage 25, selection group DAP + TR-700): 0.5 µg/mL
MIC ([2]; NRS123, passage 25, selection group DAP + TR-705): 0.5 µg/mL
MIC ([2]; NRS123, passage 25, selection group DAP + VAN): 0.25 µg/mL
MIC ([2]; NRS123, passage 30, selection group DAP): 0.25 µg/mL (≈ 0.675 µM)
MIC ([2]; NRS123, passage 30, selection group DAP + CLI): 0.25 µg/mL
MIC ([2]; NRS123, passage 30, selection group DAP + LZD): 0.5 µg/mL
MIC ([2]; NRS123, passage 30, selection group DAP + TET): 0.25 µg/mL
MIC ([2]; NRS123, passage 30, selection group DAP + TIA): 0.5 µg/mL
MIC ([2]; NRS123, passage 30, selection group DAP + TMP/SMX): 0.5 µg/mL
MIC ([2]; NRS123, passage 30, selection group DAP + TR-700): 0.5 µg/mL
MIC ([2]; NRS123, passage 30, selection group DAP + TR-705): 0.5 µg/mL
MIC ([2]; NRS123, passage 30, selection group DAP + VAN): 0.25 µg/mL
MIC ([2]; NRS123, read-out: DAP MIC by the end of the experiment (selection of DAP^ns strains), MW2, passaged with DAP alone or with co-selecting agent at ¼ MIC, CLSI breakpoint): > 1 µg/mL
susceptibility to the co-selecting agent in its co-selection group ([2]; over the course of 30 passages): did not demonstrate reduced susceptibility to TR-700
